Measured values taken from ChEMBL document CHEMBL1121671, “Synthesis of analogues of acetylmethadol and methadol as potential narcotic antagonists” (J Med Chem, 1981).
The source made the active and inactive calls. The rule behind the calls is not given here.

Legend:
Mus musculus [1] = experiment: Compound was evaluated for antagonism of tail-flick analgesia induced by 6.5 mg/kg of morphine sulfate at 1 mg/kg; assay type: functional
Opioid receptor [2] = target: T1, Opioid receptor (Rattus norvegicus, UniProt P33533+P34975+P33535); experiment: Compound was evaluated for the inhibition of [3H]- naloxone Opioid receptors binding using rat brain membrane in the absence of Na
Mus musculus [3] = organism: Mus musculus; experiment: Compound was evaluated for narcotic analgesia activity in mice by the tail flick test; assay type: functional
Mus musculus [4] = experiment: Compound was evaluated for antagonism of tail-flick analgesia induced by 6.5 mg/kg of morphine sulfate at 0.3 mg/kg; assay type: functional
Mus musculus [5] = organism: Mus musculus; experiment: Compound was evaluated for narcotic analgesia activity in mice by mouse writhing assay; assay type: functional
Opioid receptor [6] = target: T1, Opioid receptor; experiment: Compound was evaluated for the inhibition of [3H]- naloxone Opioid receptors binding using rat brain membrane in the presence of 100 mM Na
Mus musculus [7] = organism: Mus musculus; experiment: Compound was evaluated for narcotic analgesia activity in mice by hot plate test; assay type: functional
Mus musculus [8] = experiment: Compound was evaluated for narcotic analgesia activity in mice by mouse writhing assay at 30 mg/kg; Inactive; assay type: functional, organism-based; design: dose 30 mg/kg
Opioid receptor [9] = target: T1, Opioid receptor; assay type: cell membranes, Brain, Membrane
Opioid receptor [10] = target: T1, Opioid receptor; experiment: Compound was evaluated for the inhibition of [3H]- naloxone binding to Opioid receptors in rat brain membrane in the presence of Na; assay type: cell membranes
Mus musculus [11] = experiment: Compound was evaluated for narcotic analgesia activity in mice by the tail flick test; Weak up to 30 and 38% analgesia at 30 mg/kg; assay type: functional, organism-based; design: dose 30 mg/kg
Mus musculus [12] = experiment: Compound was evaluated for antagonism of tail-flick analgesia induced by 6.5 mg/kg of morphine sulfate at 10 mg/kg; Inactive; assay type: functional, organism-based

C=CCN(C)C(C)CC(c1ccccc1)(c1ccccc1)C(CC)OC(C)=O (centres undefined)
ED80 (Mus musculus [1]): 61.4 mg/kg | Ki (Opioid receptor [2]): 0.9 µM | ED50 (Mus musculus [3]): 3.1 mg/kg | ED80 (Mus musculus [4]): 56.9 mg/kg | ED50 (Mus musculus [5]): 2.5 mg/kg | Ki (Opioid receptor [6]): 10 µM | ED50 (Mus musculus [7]): 10 mg/kg

CCC(OC(C)=O)C(CC(C)N(C)CC1CC1)(c1ccccc1)c1ccccc1 (centres undefined)
ED50 (Mus musculus [8]): inactive | Ki (Opioid receptor [9]): 2 µM | Ki (Opioid receptor [10]): 30 µM | ED50 (Mus musculus [11]): Weak activity | ED50 (Mus musculus [12]): inactive

C=CCN(C)C(C)CC(c1ccccc1)(c1ccccc1)C(O)CC (centres undefined)
Ki (Opioid receptor [9]): 0.15 µM | Ki (Opioid receptor [10]): 2 µM

CN1CC[C@]23c4c5ccc(O)c4O[C@H]2[C@@H](O)C=C[C@H]3[C@H]1C5.CN1CC[C@]23c4c5ccc(O)c4O[C@H]2[C@@H](O)C=C[C@H]3[C@H]1C5.O=S(=O)(O)O
ED50 (Mus musculus [3]): 3.3 mg/kg | ED50 (Mus musculus [5]): 0.82 mg/kg | ED50 (Mus musculus [7]): 3.05 mg/kg

CCC(O)C(CC(C)N(C)CC1CC1)(c1ccccc1)c1ccccc1 (centres undefined)
Ki (Opioid receptor [9]): 0.6 µM | Ki (Opioid receptor [10]): 5 µM
